Laboratory results from patent US20230183592A1, “[…] ORGANO[…] AS NON-[…]-WEAR AGENTS” (priority 2020, published 2023).

System: not given
Assay: not given
Conditions: sum of five 0/1 risk factors, 0 (lack of risk) to 5 (very high multiple risk)
From the text: The last column corresponds to a risk level score for the safety of these molecules for use in oils such as turbine oils and their alleged cabin toxicity. […] A 0 value indicates a lack of risk, and a 5 value indicates a very high multiple risk. For each risk, a factor 0 or 1 is assigned based on whether the value is above or below a threshold.

Row | Compound | Risk level
1 | CC(C)CCCCCCCOP(=O)(Oc1ccccc1)Oc1ccccc1 [Compound 1, isodecyl diphenylphosphate] | 0
2 | CCCCC(CC)COP(=O)(Oc1ccccc1)Oc1ccccc1 (stereo not shown) [Compound A, 2-ethylhexyl diphenylphosphate] | 4
3 | Cc1ccccc1OP(=O)(Oc1ccccc1C)Oc1ccccc1C [Compound B, Tri(ortho-cresyl)phosphate] | 5
4 | Cc1cccc(OP(=O)(Oc2cccc(C)c2)Oc2cccc(C)c2)c1 [Compound C, Tri(meta-cresyl)phosphate] | 5
5 | Cc1ccc(OP(=O)(Oc2ccc(C)cc2)Oc2ccc(C)cc2)cc1 [Compound D, Tri(para-cresyl)phosphate] | 3
6 | O=P(Oc1c(F)cccc1F)(Oc1c(F)cccc1F)Oc1c(F)cccc1F [Compound F, Tri(2,6-difluorophenyl)phosphate] | ≥3
7 | CC(C)(C)c1ccc(OP(=O)(Oc2ccccc2)Oc2ccc(C(C)(C)C)cc2)cc1 [Compound H, di(p-tertbutylphenyl)phenylphosphate] | 3
8 | O=P(Oc1ccccc1)(Oc1ccccc1)Oc1ccccc1 [Compound I1, tri phenyl phosphate] | 4
9 | CC(C)(C)c1ccc(OP(=O)(Oc2ccc(C(C)(C)C)cc2)Oc2ccc(C(C)(C)C)cc2)cc1 [Compound I2, Tri(p-tert-butylphenyl)phosphate] | 3
10 | NP(=O)(Oc1ccccc1)Oc1ccccc1 [Compound K, Diphenyl phosphoroamidate] | 4
11 | CC(C)COP(=O)(OCC(C)C)OCC(C)C [Compound L, Tri(isobutyl)phosphate] | 4
12 | CCCCC(CC)COP(=O)(OCC(CC)CCCC)OCC(CC)CCCC (stereo not shown) [Compound M, Tris(2-ethylhexyl)phosphate] | ≥2
13 | CCCCOC(=O)CC(SP(=S)(OCC(CC)CCCC)OCC(CC)CCCC)C(=O)OCCCC (stereo not shown) [Compound N, Dibutyl [[bis[(2-ethylhexyl)oxy]phosphinothioyl]thio]succinate] | ≥1
14 | Saligenin cresyl phosphate [Compound J] | 4
15 | Tri(4-isopropylbenzoate)phosphate [Compound G] | 2
16 | Tricresyl phosphate [Compound P] | 4
17 | Trixylyl phosphate [Compound E] | ≥2
18 | isododecyl diphenylphosphate [Compound 4] | 0
19 | isononyl diphenylphosphate [Compound Q] | 4

System: not given
Assay: not given
Conditions: European Chemicals Agency website; cited from earlier work

Row | Compound | ECHA's official data
20 | CCCCC(CC)COP(=O)(Oc1ccccc1)Oc1ccccc1 (stereo not shown) [Compound A, 2-ethylhexyl diphenylphosphate] | No CMR, no acute toxicity
21 | O=P(Oc1ccccc1)(Oc1ccccc1)Oc1ccccc1 [Compound I1, tri phenyl phosphate] | No CMR, no acute toxicity
22 | CC(C)COP(=O)(OCC(C)C)OCC(C)C [Compound L, Tri(isobutyl)phosphate] | No CMR, no acute toxicity
23 | CCCCC(CC)COP(=O)(OCC(CC)CCCC)OCC(CC)CCCC (stereo not shown) [Compound M, Tris(2-ethylhexyl)phosphate] | No CMR, no acute toxicity
24 | CCCCOC(=O)CC(SP(=S)(OCC(CC)CCCC)OCC(CC)CCCC)C(=O)OCCCC (stereo not shown) [Compound N, Dibutyl [[bis[(2-ethylhexyl)oxy]phosphinothioyl]thio]succinate] | No CMR, no acute toxicity
25 | Tricresyl phosphate [Compound P] | PBT* Reprotoxic
26 | Trixylyl phosphate [Compound E] | PBT* Reprotoxic

Biological target: T1, human erythrocyte AChE (hAChE) (Homo sapiens, UniProt P22303)
T1 construct: The human erythrocyte AChE (hAChE, aqueous buffer solution); purchased Sigma Aldrich; host or cells: human erythrocytes (natural source)
T1 sequence (P22303 32-617 isoform P22303-2 limits assumed): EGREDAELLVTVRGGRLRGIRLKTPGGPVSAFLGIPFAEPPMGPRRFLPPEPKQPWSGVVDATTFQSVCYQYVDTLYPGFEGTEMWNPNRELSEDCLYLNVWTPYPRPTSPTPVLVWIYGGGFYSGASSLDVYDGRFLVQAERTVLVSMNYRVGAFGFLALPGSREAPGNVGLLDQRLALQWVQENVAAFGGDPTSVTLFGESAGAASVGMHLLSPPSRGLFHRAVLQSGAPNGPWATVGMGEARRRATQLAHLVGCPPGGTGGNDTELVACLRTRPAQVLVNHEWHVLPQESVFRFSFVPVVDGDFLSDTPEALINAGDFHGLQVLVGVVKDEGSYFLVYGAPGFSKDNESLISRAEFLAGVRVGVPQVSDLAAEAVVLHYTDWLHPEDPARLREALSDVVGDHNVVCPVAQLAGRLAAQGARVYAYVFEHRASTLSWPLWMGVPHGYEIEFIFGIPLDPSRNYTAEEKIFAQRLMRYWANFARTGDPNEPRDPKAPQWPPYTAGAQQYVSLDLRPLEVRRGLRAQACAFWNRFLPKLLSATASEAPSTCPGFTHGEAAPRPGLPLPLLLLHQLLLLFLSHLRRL
Assay: biochemical
Format: biochemical
Conditions: not given
Procedure: (§1) In the extent that the toxic activity of TCP especially involves its action on cholinesterases, the effect of the compounds used according to the invention, as well as comparative compounds, on two cholinesterases was studied. The required concentration values of each compound to inhibit 50% of the activity of two cholinesterases were measured.
(§2) The acetylthiocholine and butyrylthiocholine iodide, and 5,5-dithiobis (2-nitrobenzoic) acid (DTNB) were purchased from Sigma Aldrich (Steinheim, Germany).
(§3) In the procedure, 100 μL of 0.3 mM DTNB dissolved in phosphate buffer, pH 7.4, were added in 96-well plates, followed by 50 μL solution of the test compound and 50 μL enzyme (final 0.05 U). After 5 minutes of pre-incubation at 25° C., the reaction was initiated by injecting 50 μL of 0.1 mM acetyl or butyryl thiocholine iodide solution. The acetyl or butyryl thiocholine hydrolysis was followed by the formation of yellow 5-thio 2-nitrobenzoate anion as the product of the reaction of DTNB with the thiocholine released by the enzymatic hydrolysis of the acetyl or butyryl thiocholine, at a wavelength of 412 nm, using a microplate reader (Synergy 2, Biotek, Colmar, France). The compounds to be tested were dissolved to 5×10^−3M in analytical grade DMSO. Donepezil or tacrine were used as reference standards. The absorption increase rate at 412 nm was determined 4 minutes after the addition of the acetyl or butyryl thiocholine iodide solution. The tests were carried out with a blank containing all the compounds except the acetyl or butyryl thiocholine in order to take into account non-enzymatic reactions.
(§4) The percentage of inhibition due to the presence of the test compounds was calculated using the following expression: […]
(§5) wherein vi is the rate calculated in the presence of the inhibitor, and v0 is the enzymatic activity.
(§6) All the experiments were carried out in n=3.

Row | Compound | IC50 [µM]
27 | CC(C)CCCCCCCOP(=O)(Oc1ccccc1)Oc1ccccc1 [Compound 1, isodecyl diphenylphosphate] | 38.4
28 | O=P(Oc1ccccc1)(Oc1ccccc1)Oc1ccccc1 [Compound I1, tri phenyl phosphate] | 33.1
29 | CCCCOC(=O)CC(SP(=S)(OCC(CC)CCCC)OCC(CC)CCCC)C(=O)OCCCC (stereo not shown) [Compound N, Dibutyl [[bis[(2-ethylhexyl)oxy]phosphinothioyl]thio]succinate] | 33.1

Same assay, conditions: human erythrocyte AChE, Ellman method, 5 min pre-incubation at 25° C., n=3

Row | Compound | IC50 hAChE [µg/mL]
30 | Tricresyl phosphate [Compound P] | 16.9

Same assay, conditions: human erythrocyte AChE, Ellman method, 5 min pre-incubation at 25° C., n=3; read-out: IC50 hAChE (converted)

Row | Compound | IC50 [µM]
31 | CCCCC(CC)COP(=O)(OCC(CC)CCCC)OCC(CC)CCCC (stereo not shown) [Compound M, Tris(2-ethylhexyl)phosphate] | 28.1

Biological target: T2, BuChE from equine serum (eqBuChE) (Equus caballus, UniProt P81908)
T2 construct: The BuChE freeze-dried from equine serum (eqBuChE, Sigma Aldrich); purchased Sigma Aldrich; host or cells: equine serum (natural source)
T2 sequence (P81908 whole entry): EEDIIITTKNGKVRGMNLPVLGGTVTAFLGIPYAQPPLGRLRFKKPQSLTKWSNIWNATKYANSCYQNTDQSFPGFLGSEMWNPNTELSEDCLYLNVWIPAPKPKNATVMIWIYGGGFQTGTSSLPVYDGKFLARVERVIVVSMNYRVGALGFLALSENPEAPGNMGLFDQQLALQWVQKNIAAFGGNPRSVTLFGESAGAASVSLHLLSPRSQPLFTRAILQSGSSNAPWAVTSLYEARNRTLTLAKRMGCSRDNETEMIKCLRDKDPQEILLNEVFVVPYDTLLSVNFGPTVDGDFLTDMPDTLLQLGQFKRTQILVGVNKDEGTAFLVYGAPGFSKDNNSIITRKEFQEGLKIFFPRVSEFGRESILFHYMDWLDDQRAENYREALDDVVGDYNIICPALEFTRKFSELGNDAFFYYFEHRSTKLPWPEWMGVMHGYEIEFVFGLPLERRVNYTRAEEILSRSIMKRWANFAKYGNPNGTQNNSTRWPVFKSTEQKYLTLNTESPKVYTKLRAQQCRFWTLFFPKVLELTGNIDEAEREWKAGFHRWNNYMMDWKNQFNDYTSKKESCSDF
Assay: biochemical
Format: biochemical
Conditions: not given
Procedure: as §1, §2, §3, §4, §5, §6

Row | Compound | IC50 [µM]
32 | CC(C)CCCCCCCOP(=O)(Oc1ccccc1)Oc1ccccc1 [Compound 1, isodecyl diphenylphosphate] | 93
33 | O=P(Oc1ccccc1)(Oc1ccccc1)Oc1ccccc1 [Compound I1, tri phenyl phosphate] | 42.9
34 | CCCCOC(=O)CC(SP(=S)(OCC(CC)CCCC)OCC(CC)CCCC)C(=O)OCCCC (stereo not shown) [Compound N, Dibutyl [[bis[(2-ethylhexyl)oxy]phosphinothioyl]thio]succinate] | 19

Same assay, conditions: equine serum BuChE, Ellman method, 5 min pre-incubation at 25° C., n=3

Row | Compound | IC50 eqBuChE [µg/mL]
35 | Saligenin cresyl phosphate [Compound J] | 0.7
36 | Tricresyl phosphate [Compound P] | 0.7

Same assay, conditions: equine serum BuChE, Ellman method, 5 min pre-incubation at 25° C., n=3; read-out: IC50 eqBuChE (converted)

Row | Compound | IC50 [µM]
37 | CCCCC(CC)COP(=O)(OCC(CC)CCCC)OCC(CC)CCCC (stereo not shown) [Compound M, Tris(2-ethylhexyl)phosphate] | 279
